Laboratory results reported in patent US12091425B2 (AMGEN INC., priority 2016, dated 2024).

Assays:
[1] = molecular target: T1, Mcl-1/Bim interaction, recombinant human Mcl-1 (171-327) (Homo sapiens, UniProt Q07820); assay: Cell free Mcl-1: Bim Affinity Assay (Mcl-1 HTRF); type: binding
T1 construct: made in house
Summary of the method: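 Biotin-Bim(51-76) peptide, TR-FRET readout, overnight incubation; IC50 from duplicate competition curves, 4-parameter fit.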

[2] = system: OPM-2 human multiple myeloma cell line; assay: Cell Viability Assay (OPM-2 10 FBS); type: cell-based; details: OPM-2 cells, CellTiter-Glo
Summary of the method: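 ATP-based luminescence (CellTiter-Glo) measured after a 16 h compound treatment of OPM-2 cells seeded at 3000 cells/well in 10% FBS medium. IC50 values derived by 4-parameter logistic fitting of serial dilutions.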

[3] = TR-FRET, 0.1 nM Mcl-1 (171-327), 0.05 nM biotin-Bim (51-76)
[4] = Homo sapiens, OPM-2, 16 h, 16 h
[5] = cell free Mcl-1:Bim TR-FRET, recombinant human Mcl-1 (171-327)

T1 sequence (Q07820 171-327): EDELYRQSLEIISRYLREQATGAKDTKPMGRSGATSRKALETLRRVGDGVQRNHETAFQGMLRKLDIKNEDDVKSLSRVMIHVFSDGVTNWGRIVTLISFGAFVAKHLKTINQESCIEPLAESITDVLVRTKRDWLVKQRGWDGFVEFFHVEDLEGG

| IC50 [1, 3] [nM] | IC50 [2, 4] [nM] | IC50 [1, 5] [nM] | SMILES | IC50 ([2]; 16 h) [nM] | IC50 ([2]; 16 h incubation) [nM] |
| --- | --- | --- | --- | --- | --- |
| 44.4 | 23000 | – | CC1CC(C)C(C)S(=O)(=O)NC(=O)c2ccc3c(c2)N(CC2CCC2C(O)C1)CC1(CCCc2cc(Cl)ccc21)CO3 (single isomer, unassigned) [Example 259] | – | – |
| 1.32 | 8740 | – | Cn1cnc(CO[C@@H]2/C=C/CCCS(=O)(=O)NC(=O)c3ccc4c(c3)N(C[C@@H]3CC[C@H]32)C[C@@]2(CCCc3cc(Cl)ccc32)CO4)n1 [Example 215, (1S,3′R,6′R,7′R,8′E)-6-chloro-7′-((1-methyl-1H-1,2,4-triazol-3-yl)methoxy)-3,4-dihydro-2H,15′H-spiro[naphthalene-1,22′-[20]oxa[13]thia[1,14]diazatetracyclo[14.7.2.0^3,6.0^19,24]pentacosa [8,16,18,24]tetraen]-15′-one 13′,13′-dioxide] | – | – |
| 0.333 | 310 | – | CCC(OC1C=CCCC(C)S(=O)(=O)NC(=O)c2ccc3c(c2)N(CC2CCC21)CC1(CCCc2cc(Cl)ccc21)CO3)C(=O)N(C)C (single isomer, unassigned) [Example 419] | – | – |
| 1.59 | 1530 | – | COCCO[C@@H]1/C=C/CCCS(=O)(=O)NC(=O)c2ccc3c(c2)N(C[C@@H]2CC[C@H]21)C[C@@]1(CCCc2cc(Cl)ccc21)CO3 [Example 210, (1S,3′R,6′R,7′R,8′E)-6-chloro-7′-(2-methoxyethoxy)-3,4-dihydro-2H,15′H-spiro[naphthalene-1,22′-[20]oxa[13]thia[1,14]diazatetracyclo[14.7.2.0^3,6.0^19,24]pentacosa [8,16,18,24]tetraen]-15′-one 13′,13′-dioxide] | – | – |
| 0.218 | 566 | – | CO[C@H]1/C=C/[C@H](CCO)C[C@@H](C)S(=O)(=O)NC(=O)c2ccc3c(c2)N(C[C@@H]2CC[C@H]21)C[C@@]1(CCCc2cc(Cl)ccc21)CO3 [Example 202, (1S,3′R,6′R,7′S,8′E,10′R,12′R)-6-chloro-10′-(2-hydroxyethyl)-7′-methoxy-12′-methyl-3,4-dihydro-2H,15′H-spiro[naphthalene-1,22′-[20]oxa[13]thia[1,14]diazatetracyclo[14.7.2.0^3,6.0^19,24]pentacosa [8,16,18,24]tetraen]-15′-one 13′,13′-dioxide] | – | – |
| – | 416 | 0.376 | O=C1NS(=O)(=O)NCCC/C=C/[C@H](O)[C@@H]2CC[C@H]2CN2C[C@@]3(CCCc4cc(Cl)ccc43)COc3ccc1cc32 [Example 660, (1S,3′R,6′R,7′S,8′E)-6-chloro-7′-hydroxy-3,4-dihydro-2H,16′H-spiro[naphthalene-1,23′-[21]oxa[14]thia[1,13,15]triazatetracyclo[15.7.2.0^3,6.0^20,25]hexacosa[8,17,19,25]tetraen]-16′-one 14′,14′-dioxide] | – | – |
| 0.85 | 818 | – | O=C1NS(=O)(=O)N(CC2CC2)CC/C=C/[C@H](O)[C@@H]2CC[C@H]2CN2C[C@@]3(CCCc4cc(Cl)ccc43)COc3ccc1cc32 [Example 20, (1S,3′R,6′R,7′S,8′E)-6-chloro-12′-(cyclopropylmethyl)-7′-hydroxy-3,4-dihydro-2H,15′H-spiro[naphthalene-1,22′-[20]oxa[13]thia[1,12,14]triazatetracyclo[14.7.2.0^3,6.0^19,24]pentacosa[8,16,18,24]tetraen]-15′-one 13,13′-dioxide] | – | – |
| – | 12200 | 4.83 | COC(=O)CCC1(C)CCC=CC(O)C2CCC2CN2CC3(CCCc4cc(Cl)ccc43)COc3ccc(cc32)C(=O)NS1(=O)=O (centres unmarked) [Example 560] | – | – |
| 0.273 | 430 | – | O=C1NS(=O)(=O)[C@@H]2CCOC[C@H]2C/C=C/[C@H](O)[C@@H]2CC[C@H]2CN2C[C@@]3(CCCc4cc(Cl)ccc43)COc3ccc1cc32 (single isomer, unassigned) [Example 318] | – | – |
| 0.249 | 198 | – | CC[C@@H]1CC/C=C/[C@H](OCc2ncn(C)n2)[C@@H]2CC[C@H]2CN2C[C@@]3(CCCc4cc(Cl)ccc43)COc3ccc(cc32)C(=O)NS1(=O)=O [Example 423, (1S,3′R,6′R,7′S,8′E,12′R)-6-chloro-12′-ethyl-7′-((1-methyl-1H-1,2,4-triazol-3-yl)methoxy)-3,4-dihydro-2H,15′H-spiro[naphthalene-1,22′-[20]oxa[13]thia[1,14]diazatetracyclo[14.7.2.0^3,6.0^19,24]pentacosa [8,16,18,24]tetraen]-15′-one 13′,13′-dioxide] | – | – |
| 0.393 | 870 | – | C[C@@H]1[C@@H](C)C/C=C/[C@H](OCCS(N)(=O)=O)[C@@H]2CC[C@H]2CN2C[C@@]3(CCCc4cc(Cl)ccc43)COc3ccc(cc32)C(=O)NS1(=O)=O [Example 15, 2-(((1S,3′R,6′R,7′S,8′E,11′S,12′R)-6-chloro-11′,12′-dimethyl-13′,13′-dioxido-15′-oxo-3,4-dihydro-2H-spiro[naphthalene-1,22′-[20]oxa[13]thia[1,14]diazatetracyclo[14.7.2.0^3,6.0^19,24]pentacosa[8,16,18,24]tetraen]-7′-yl)oxy)ethanesulfonamide] | – | – |

More lines, now with the values behind:

| SMILES | IC50 [1, 3] [nM] | IC50 [2, 4] [nM] | IC50 [1, 5] [nM] | IC50 ([2]; 16 h) [nM] | IC50 ([2]; 16 h incubation) [nM] |
| --- | --- | --- | --- | --- | --- |
| C[C@@H]1[C@@H](C)C/C=C/[C@H](OCCC2CCN(C(=O)OC(C)(C)C)CC2)[C@@H]2CC[C@H]2CN2C[C@@]3(CCCc4cc(Cl)ccc43)COc3ccc(cc32)C(=O)NS1(=O)=O [Example 737, tert-butyl 4-(2-(((1S,3′R,6′R,7′S,8′E,11′S,12′R)-6-chloro-11′,12′-dimethyl-13′,13′-dioxido-15′-oxo-3,4-dihydro-2H-spiro[naphthalene-1,22′-[20]oxa[13]thia[1,14]diazatetracyclo[14.7.2.0˜3,6˜.0˜19,24˜]pentacosa[8,16,18,24]tetraen]-7′-yl)oxy)ethyl)-1-piperidinecarboxylate] | – | 3390 | 15.1 | – | – |
| C[C@@H]1[C@@H](C)C/C=C/[C@H](OCCN2CCCCC2)[C@@H]2CC[C@H]2CN2C[C@@]3(CCCc4cc(Cl)ccc43)COc3ccc(cc32)C(=O)NS1(=O)=O [Example 723, (1S,3′R,6′R,7′S,8′E,11′5,12′R)-6-chloro-11′,12′-dimethyl-7′-(2-(1-piperidinyl)ethoxy)-3,4-dihydro-2H,15′H-spiro[naphthalene-1,22′-[20]oxa[13]thia[1,14]diazatetracyclo[14.7.2.0^3,6.0^19,24]pentacosa [8,16,18,24]tetraen]-15′-one-13′, 13′-dioxide] | – | 138 | 0.485 | – | – |
| CO[C@H]1/C=C/CC[C@@H](C[C@@H](C)O)S(=O)(=O)NC(=O)c2ccc3c(c2)N(C[C@@H]2CC[C@H]21)C[C@@]1(CCCc2cc(Cl)ccc21)CO3 (single isomer, unassigned) [Example 548] | – | – | 0.275 | 478 | – |
| COCCO[C@H]1CC[C@@H](C)C[C@@H](COC)S(=O)(=O)NC(=O)c2ccc3c(c2)N(C[C@@H]2CC[C@H]21)C[C@@]1(CCCc2cc(Cl)ccc21)CO3 (single isomer, unassigned) [Example 1040] | 1.04 | – | – | – | 2190 |
| COC1C=CCC(OC)C(CC2CCCO2)S(=O)(=O)NC(=O)c2ccc3c(c2)N(CC2CCC21)CC1(CCCc2cc(Cl)ccc21)CO3 (single isomer, unassigned) [Example 642] | – | – | 0.539 | 351 | – |
| C[C@@H]1[C@@H](C)C/C=C/[C@H](OCCN2CCCC2=O)[C@@H]2CC[C@H]2CN2C[C@@]3(CCCc4cc(Cl)ccc43)COc3ccc(cc32)C(=O)NS1(=O)=O [Example 730, (1S,3′R,6′R,7′S,8′E,11′5,12′R)-6-chloro-11′,12′-dimethyl-7′-(2-(2-oxo-1-pyrrolidinyl)ethoxy)-3,4-dihydro-2H,15′H-spiro[naphthalene-1,22′-[20]oxa[13]thia[1,14]diazatetracyclo[14.7.2.0^3,6.0^19,24]pentacosa [8,16,18,24]tetraen]-15′-one-13′, 13′-dioxide] | – | 157 | 0.307 | – | – |
| O=C1NS(=O)(=O)[C@H]2CCC[C@H](/C=C/[C@H](O)[C@@H]3CC[C@H]3CN3C[C@@]4(CCCc5cc(Cl)ccc54)COc4ccc1cc43)C2 (single isomer, unassigned) [Example 104] | 40 | – | – | 13000 | – |
| COCCO[C@H]1/C=C/C(C)C[C@@H](COC)S(=O)(=O)NC(=O)c2ccc3c(c2)N(C[C@@H]2CC[C@H]21)C[C@@]1(CCCc2cc(Cl)ccc21)CO3 (single isomer, unassigned) [Example 1039] | 0.389 | – | – | – | 198 |
| C[C@@H]1[C@@H](C)C/C=C/[C@H](OCCN2CCOCC2)[C@@H]2CC[C@H]2CN2C[C@@]3(CCCc4cc(Cl)ccc43)COc3ccc(cc32)C(=O)NS1(=O)=O [Example 720, (1S,3′R,6′R,7′S,8′E,11′S,12′R)-6-chloro-11′,12′-dimethyl-7′-(2-(4-morpholinyl)ethoxy)-3,4-dihydro-2H,15′H-spiro[naphthalene-1,22′-[20]oxa[13]thia[1,14]diazatetracyclo[14.7.2.0^3,6.0^19,24]pentacosa [8,16,18,24]tetraen]-15′-one-13′, 13′-dioxide] | – | 54.2 | 0.327 | – | – |
| O=C1NS(=O)(=O)[C@@H](CCS(=O)(=O)Cc2ccccc2)CC/C=C/[C@H](O)[C@@H]2CC[C@H]2CN2C[C@@]3(CCCc4cc(Cl)ccc43)COc3ccc1cc32 (single isomer, unassigned) [Example 163] | 5.07 | – | – | 18900 | – |
| O=C1NS(=O)(=O)C(Cc2ccc(Br)cc2)CCC=CC(O)C2CCC2CN2CC3(CCCc4cc(Cl)ccc43)COc3ccc1cc32 (single isomer, unassigned) [Example 633] | – | – | 23.1 | 17800 | – |
